The numbers were not newly measured in patent publication US20060136139A1, “Rapid computational identification of targets” (priority 2004, published 2006), which cites them from elsewhere.

pIC50: −log10 of the molar value.

One data set has as its system PP2A. The note with it: experimental value beside the computed energy.
For a further data set, the system named is PP2C. The following applies: experimental value beside the computed energy.
For a further data set, the system named is PP1. The note with it: experimental value beside the computed energy.
Another data set has as its system PP2B. The following applies: experimental value beside the computed energy.
The conditions of data set [1]: at concentrations used in experimental inhibition studies.

On to `C=C1[C@@H](O)[C@@H]2O[C@]3(CC[C@H](/C=C/[C@@H](C)[C@@H]4CC(C)=C[C@@]5(O[C@H](C[C@@](C)(O)C(=O)O)CC[C@H]5O)O4)O3)CC[C@H]2O[C@@H]1[C@@H](O)C[C@H](C)[C@H]1O[C@@]2(CCCCO2)CC[C@H]1C` [okadaic acid], for which the pIC50 with PP2A is 9.29; in the data set on PP2C, < 5.00; with PP1, 7.38; in the data set on PP2B, 5.30.
With `O=c1c(O)c(-c2ccc(O)c(O)c2)oc2cc(O)cc(O)c12` [quercetin], in data set [1], the “aggregation of kinase inhibitor” value is given as “exhibit this behavior”.
